Measured values reported in ChEMBL document CHEMBL1770080, “Diamide amino-imidazoles: a novel series of γ-secretase inhibitors for the treatment of Alzheimer's disease” (Bioorg Med Chem Lett, 2011).
One block for each compound: values may come before it. Activity calls are given as the source filed them. The calls are words filed in the database; no cut-off is given here.

Tests used:
Cavia porcellus [1] = assay: Antialzheimer activity in guinea pig assessed as reduction of total amyloid beta level in brain at 10 mg/kg, sc after 3 hrs by DELFIA-based ELISA; format: functional
Cavia porcellus [2] = assay: Antialzheimer activity in guinea pig assessed as reduction of total amyloid beta level in plasma at 1 to 32 mg/kg, sc after 3 to 7 hrs by DELFIA-based ELISA; format: functional, organism-based
Cavia porcellus [3] = assay: Antialzheimer activity in guinea pig assessed as reduction of total amyloid beta level in plasma at 3.2 mg/kg, sc after 3 hrs by DELFIA-based ELISA; format: functional, organism-based; set-up: dose 3.2 mg/kg
Cavia porcellus [4] = assay: Antialzheimer activity in sc dosed guinea pig assessed as reduction of total amyloid beta level in brain after 3 hrs by DELFIA-based ELISA; format: functional
Cavia porcellus [5] = assay: Antialzheimer activity in guinea pig assessed as reduction of total amyloid beta level in brain at 1 to 32 mg/kg, sc after 3 to 7 hrs by DELFIA-based ELISA; format: functional, organism-based
Cavia porcellus [6] = assay: Antialzheimer activity in guinea pig assessed as reduction of total amyloid beta level in brain at 1 to 32 mg/kg, sc after 1 hr by DELFIA-based ELISA; format: functional, organism-based
Cavia porcellus [7] = assay: Antialzheimer activity in guinea pig assessed as reduction of total amyloid beta level in cerebral spinal fluid at 1 to 32 mg/kg, sc after 1 hr by DELFIA-based ELISA; format: functional, organism-based
Cavia porcellus [8] = assay: Antialzheimer activity in guinea pig assessed as reduction of total amyloid beta level in plasma at 1 to 32 mg/kg, sc after 1 hr by DELFIA-based ELISA; format: functional, organism-based
[9] = Inhibition of gamma secretase-mediated notch processing in C57BL/6 mouse fetal thymic organ cultures assessed as reduction of B and T-cell populations after […] by FACS analysis
Cavia porcellus [10] = assay: Antialzheimer activity in guinea pig assessed as reduction of total amyloid beta level in plasma at 1 to 32 mg/kg, sc after 3 hrs by DELFIA-based ELISA; format: functional; set-up: scale not given: the % may be the effect or the level left; conditions: dose mg/kg 1-32; route subcutaneous
Cavia porcellus [11] = assay: Antialzheimer activity in guinea pig assessed as reduction of total amyloid beta level in cerebral spinal fluid at 1 to 32 mg/kg, sc after 3 to 7 hrs by DELFIA-based ELISA; format: functional, organism-based
Cavia porcellus [12] = assay: Antialzheimer activity in guinea pig assessed as reduction of total amyloid beta level in brain at 5 mg/kg, sc administered 3 doses over 24 hrs measured after 3 hrs last post dose by DELFIA-based ELISA; format: functional; set-up: scale not given: the % may be the effect or the level left; conditions: route subcutaneous
[13] = Inhibition of gamma-secretase in guinea pig brain; set-up: species or system Cavia porcellus
Mus musculus = species: Mus musculus; assay: Antialzheimer activity in heterozygous PDAPP transgenic mouse overexpressing APP V717F mutant assessed as reduction of total amyloid beta level in brain; format: functional; conditions: read-out: MED

SMILES: CC(C)C[C@H](NC(=O)Cc1cc(F)cc(F)c1)C(=O)Nc1cn(C(C)(C)CN2CCCC2)cn1
Activity (Cavia porcellus [1]): inactive

SMILES: CCC[C@H](NC(=O)Cc1cc(F)cc(F)c1)C(=O)Nc1cn(C(CC)CC)cn1
Activity (Cavia porcellus [1]; route subcutaneous): <10%

SMILES: CCC[C@H](NC(=O)Cc1cc(F)cc(F)c1)C(=O)Nc1cn(C(C)(C)CN2CCCC2)cn1
Activity (Cavia porcellus [1]; route subcutaneous): 43%

SMILES: C[C@H](NC(=O)Cc1cc(F)cc(F)c1)C(=O)Nc1cn(C(C)(C)CN2CCCC2)cn1
Activity (Cavia porcellus [1]): inactive

SMILES: C[C@H](NC(=O)Cc1cc(F)cc(F)c1)C(=O)N[C@H](C(=O)OC(C)(C)C)c1ccccc1
minimal effective dose (Mus musculus): 30 mg/kg

SMILES: CCC[C@H](NC(=O)Cc1cc(F)cc(F)c1)C(=O)Nc1cn(C(C)(C)CC(=O)OC)cn1
Activity (Cavia porcellus [1]; route subcutaneous): 32%

Now from value to compound, other results behind:

EC50 [9]: 1200 nM
IC50 [13]: 24 nM
SMILES: CCC[C@H](NC(=O)Cc1cc(F)cc(F)c1)C(=O)Nc1cn(C(C)(C)CNCC(C)(C)C)cn1
Activity (Cavia porcellus [2]): Active
Activity (Cavia porcellus [3]): Active
ED50 (Cavia porcellus [4]): 7.3 mg/kg
Activity (Cavia porcellus [5]): Active
Activity (Cavia porcellus [6]): Active
Activity (Cavia porcellus [7]): inactive
Activity (Cavia porcellus [8]): Active
Activity (Cavia porcellus [10]): 60%
Activity (Cavia porcellus [11]): Active
Activity (Cavia porcellus [12]): 50%

EC50 [9]: 700 nM
SMILES: CCC[C@H](NC(=O)Cc1cc(F)cc(F)c1)C(=O)Nc1cn(C(C)(C)CN(C)C)cn1

EC50 [9]: > 10000 nM
SMILES: CCC[C@H](NC(=O)Cc1cc(F)cc(F)c1)C(=O)Nc1cn(C(C)(C)CNC(C)C)cn1

EC50 [9]: 4000 nM
SMILES: CCC[C@H](NC(=O)Cc1cc(F)cc(F)c1)C(=O)Nc1cn(C(C)(C)CNCC2CCOCC2)cn1

EC50 [9]: 100 nM
SMILES: CCC[C@H](NC(=O)Cc1cc(F)cc(F)c1)C(=O)Nc1cn(C(C)(C)CN2CCOCC2)cn1

EC50 [9]: 4300 nM
SMILES: CCC[C@H](NC(=O)Cc1cc(F)cc(F)c1)C(=O)Nc1cn(C(C)(C)CNCc2ccccc2)cn1

EC50 [9]: > 10000 nM
SMILES: CCC[C@H](NC(=O)Cc1cc(F)cc(F)c1)C(=O)Nc1cn(C(C)(C)CNC2CCC(O)CC2)cn1 (some centres undefined)
